# Test results published in ChEMBL document CHEMBL1152712, “5-Hydroxyindole-type alkaloids, as Candida albicans isocitrate lyase inhibitors, from the tropical sponge Hyrtios sp” (Bioorg Med Chem Lett, 2009).
# Columns and labels:
# Isocitrate lyase = Isocitrate lyase (Candida albicans, UniProt Q9P8Q7); assay: Inhibition of Candida albicans isocitrate lyase
# Candida albicans = assay: Antimicrobial activity against Candida albicans ATCC 10231; type: functional
# Isocitrate lyase, sequence (Q9P8Q7 whole entry): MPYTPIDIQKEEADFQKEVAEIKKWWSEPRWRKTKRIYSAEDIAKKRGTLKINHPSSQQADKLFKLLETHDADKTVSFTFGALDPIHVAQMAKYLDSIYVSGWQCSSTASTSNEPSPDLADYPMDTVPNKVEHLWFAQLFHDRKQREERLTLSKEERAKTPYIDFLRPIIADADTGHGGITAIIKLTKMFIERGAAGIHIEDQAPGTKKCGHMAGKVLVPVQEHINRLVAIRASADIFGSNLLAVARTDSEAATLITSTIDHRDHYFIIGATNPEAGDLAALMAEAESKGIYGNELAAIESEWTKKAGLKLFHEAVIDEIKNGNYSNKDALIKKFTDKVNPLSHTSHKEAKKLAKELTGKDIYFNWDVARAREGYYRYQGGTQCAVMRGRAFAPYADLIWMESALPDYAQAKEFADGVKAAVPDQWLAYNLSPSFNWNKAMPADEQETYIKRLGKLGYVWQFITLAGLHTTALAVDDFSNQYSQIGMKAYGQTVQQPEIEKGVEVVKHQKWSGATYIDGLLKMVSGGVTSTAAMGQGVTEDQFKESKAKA
IC50 (Isocitrate lyase) [µM],MIC (Candida albicans) [µM],SMILES
89,> 624,O=C(C(=O)c1c[nH]c2ccc(O)cc12)c1c[nH]c2ccc(O)cc12 [HYRTIOSIN B]
318,> 1050,O=C(CO)c1c[nH]c2ccc(O)cc12 [HYRTIOSIN A]
,1.7,C[C@@H]1[C@H](O)[C@@H](C)/C=C/C=C/C=C/C=C/C=C/C=C/C=C/[C@H](O[C@@H]2O[C@H](C)[C@@H](O)[C@H](N)[C@@H]2O)C[C@@H]2O[C@](O)(C[C@@H](O)C[C@@H](O)[C@H](O)CC[C@@H](O)C[C@@H](O)CC(=O)O[C@H]1C)C[C@H](O)[C@H]2C(=O)O [AMPHOTERICIN B]
800,> 1050,COC(=O)c1c[nH]c2ccc(O)cc12
247,> 1020,O=Cc1c[nH]c2ccc(O)cc12
380,> 869,O=C(O)C1=NCCc2c1[nH]c1ccc(O)cc21
> 989,> 989,O=C1NCCc2c1[nH]c1ccc(O)cc21

SMILES,IC50 (Isocitrate lyase) [µM],MIC (Candida albicans) [µM]
O=C(O)CC[N+](=O)[O-],,> 1690
NCCc1c[nH]c2ccc(O)cc12 [SEROTONIN],301,> 1130
